Assay: xn = mol fraction of the nth substance listed

CC(C)(C)N + COC(C)=O
303.15 K, 101 kPa
Settings | viscosity [mPa·s]
x1 = 0.1513 | 0.3868
x1 = 0.247 | 0.4006
x1 = 0.3175 | 0.4155
x1 = 0.4152 | 0.4301
x1 = 0.5361 | 0.4379
x1 = 0.7023 | 0.4413
x1 = 0.771 | 0.4432
x1 = 0.8641 | 0.4438

C=Cc1ccccc1 + CCCCCCC
viscosity [mPa·s], 101.33 kPa
Settings | x1 = 0.1018 | x1 = 0.202 | x1 = 0.2988 | x1 = 0.3984 | x1 = 0.4989 | x1 = 0.5997 | x1 = 0.6992 | x1 = 0.8006 | x1 = 0.8979
298.15 K | 0.398 | 0.412 | 0.427 | 0.448 | 0.471 | 0.5 | 0.536 | 0.581 | 0.638
303.15 K | 0.379 | 0.393 | 0.406 | 0.425 | 0.445 | 0.473 | 0.508 | 0.55 | 0.599
308.15 K | 0.36 | 0.372 | 0.386 | 0.405 | 0.423 | 0.45 | 0.481 | 0.519 | 0.565

CC(C)(C)N + CCCCOC(C)=O
303.15 K, 101 kPa
Settings | viscosity [mPa·s]
x1 = 0.1472 | 0.6309
x1 = 0.229 | 0.6186
x1 = 0.3626 | 0.5943
x1 = 0.435 | 0.5852
x1 = 0.5578 | 0.5545
x1 = 0.6566 | 0.5313
x1 = 0.7339 | 0.5091
x1 = 0.8272 | 0.4861

CCCCCCCCO + CCCCCC
298.15 K, 101.33 kPa
Settings | viscosity [mPa·s]
x2 = 0.1657 | 4.313
x2 = 0.2119 | 3.677
x2 = 0.274 | 2.968
x2 = 0.3717 | 2.093
x2 = 0.4775 | 1.432
x2 = 0.5556 | 1.096
x2 = 0.6659 | 0.759
x2 = 0.7638 | 0.559
x2 = 0.8406 | 0.443
x2 = 0.9211 | 0.35
x2 = 0.9597 | 0.319

BrC(Br)Br + CC(C)CO
viscosity [mPa·s], 101.3 kPa
Settings | x1 = 0.099 | x1 = 0.197 | x1 = 0.3 | x1 = 0.395 | x1 = 0.498 | x1 = 0.597 | x1 = 0.701 | x1 = 0.798 | x1 = 0.901
298.15 K | 2.98 | 2.604 | 2.336 | 2.134 | 2.017 | 1.905 | 1.849 | 1.815 | 1.823
303.15 K | 2.544 | 2.272 | 2.045 | 1.901 | 1.808 | 1.732 | 1.693 | 1.679 | 1.699
308.15 K | 2.193 | 2.011 | 1.803 | 1.687 | 1.633 | 1.579 | 1.559 | 1.558 | 1.591

CCCCCCCCO + CC1COC(=O)O1
298.15 K, 101 kPa
Settings | viscosity [mPa·s]
x2 = 0.0305 | 5.992
x2 = 0.0991 | 5.607
x2 = 0.1708 | 5.253
x2 = 0.2441 | 4.915
x2 = 0.3107 | 4.627
x2 = 0.4055 | 4.245
x2 = 0.4882 | 3.938
x2 = 0.5632 | 3.679
x2 = 0.6277 | 3.469
x2 = 0.7091 | 3.222
x2 = 0.7824 | 3.015
x2 = 0.8415 | 2.857
x2 = 0.9046 | 2.698
x2 = 0.971 | 2.54

CC12CC3CC(C1)CC(C)(C3)C2 + CCCCC1CCCCC1
viscosity [mPa·s], 100 kPa
Settings | x1 = 0.083 | x1 = 0.1716 | x1 = 0.2652 | x1 = 0.3625 | x1 = 0.4617 | x1 = 0.5636 | x1 = 0.662 | x1 = 0.7728 | x1 = 0.8838
293.15 K | 1.407 | 1.518 | 1.654 | 1.802 | 1.989 | 2.215 | 2.472 | 2.797 | 3.222
298.15 K | 1.293 | 1.391 | 1.512 | 1.643 | 1.805 | 2.007 | 2.229 | 2.518 | 2.885
303.15 K | 1.194 | 1.281 | 1.389 | 1.506 | 1.647 | 1.828 | 2.024 | 2.272 | 2.601
313.15 K | 1.03 | 1.099 | 1.187 | 1.28 | 1.393 | 1.537 | 1.692 | 1.883 | 2.145
323.15 K | 0.893 | 0.951 | 1.008 | 1.088 | 1.182 | 1.289 | 1.414 | 1.583 | 1.774

BrC(Br)Br + CCOC(C)=O
viscosity [mPa·s]
Settings | x1 = 0.2695 | x1 = 0.2713 | x1 = 0.5228 | x1 = 0.529 | x1 = 0.7671 | x1 = 0.7683
298 K, 101.3 kPa | – | 0.754 | – | 1.141 | – | 1.565
318 K, 101.33 kPa | 0.6005 | – | 0.8779 | – | 1.179 | –

BrC(Br)Br + CCCCO
viscosity [mPa·s], 101.3 kPa
Settings | x1 = 0.099 | x1 = 0.205 | x1 = 0.3 | x1 = 0.401 | x1 = 0.501 | x1 = 0.602 | x1 = 0.699 | x1 = 0.803 | x1 = 0.899
298.15 K | 2.482 | 2.339 | 2.196 | 2.063 | 1.955 | 1.887 | 1.847 | 1.817 | 1.827
303.15 K | 2.183 | 2.07 | 1.942 | 1.841 | 1.768 | 1.718 | 1.695 | 1.684 | 1.709
308.15 K | 1.915 | 1.828 | 1.738 | 1.662 | 1.607 | 1.573 | 1.559 | 1.564 | 1.588

Reference: the CheMixHub viscosity set
